Laboratory results reported in US20220372585A1, “Sensors for Aromatic Compounds and Methods of Making and Using Same” (Washington University, priority 2021, published 2022).
“Also recorded” adds a separate entry of the source. Where two headings read alike, the source gives them in different places.

How the values were obtained:
[1] = test system: TynA-FeaR system; assay: microbe, parasite or virus in culture; details: for EC50 / fold induction at 1250 µM: Escherichia coli; for EC50: read-out: KA (half maximal constant); for fold induction at 1250 µM: read-out: fold induction of the reporter; for Fmax / Fmin / n (Hill coefficient): wild-type TynA and FeaR, pCX008, pHJY022
Method: To develop sensors for aromatic amines, the TynA-FeaR system was first characterized in EcN. A sensor plasmid was constructed, which consisted of constitutively expressed TynA and FeaR from E. coli MG1655, and a reporter plasmid, which consisted of GFP under the control of PtynA (see e.g., FIG. 3B). […] Next, the sensitivity and selectivity to different ligands was characterized.
For fluorescence-based quantification, single colonies were transferred to 5 mL LB medium (VWR, Radnor, Pa., USA) in 14 mL round bottom tubes and incubated overnight at 250 rpm and 37° C. Unless otherwise specified, experimental cultures were prepared by diluting overnight cultures 100× into 0.6 mL M9 minimal medium supplemented with 1 mM MgSO4, […]), and 2% w/v glycerol as well as the respective ligands (DA, PEA, Tyra, and Trypta) in 2 mL 96-deep well plates. Cultures were grown for 24 h at 37° C. and 250 rpm. After 5 h and 24 h of incubation, samples were obtained from the cultures for flow cytometry analysis.
Flow cytometry was performed as previously described. Culture samples were collected and diluted to a final OD600 of ˜0.005-0.01 in […] filtered phosphate-buffered saline supplemented with 2 mg/ml kanamycin in 96-well assay microplates (U-bottom, REF-353910 from BD Biosciences, San Jose, Calif., USA). The fluorescence of the samples was measured using a Millipore Guava EasyCyte High Throughput flow cytometer with a 488 nm excitation laser and 512/18 nm emission filter. Cytometry data was gated by forward and side scatter. FlowJo (TreeStar Inc.) was used to obtain the arithmetic mean of the fluorescence distribution. The averages of the arithmetic means were calculated from three biological replicates. The average fluorescence of the non-fluorescent wild-type cell was subtracted from each sample to obtain the final fluorescence (au) values (Equation 2). To obtain the relative fluorescence in FIG. 6A-FIG. 6C, fluorescence values for each variant were normalized to the fluorescence of the wild-type sensor using Equation 3.
The Hill equation (Equations 4 and 5) was used to fit lines to the fluorescence data. The model was fit to the experimentally collected data by minimizing the root mean square error (RMSE; Equation 6).

[2] = test system: G415H TynA with wild-type FeaR; type: cell-based, E. coli MG1655; details: for response: G415H; for Fmax / Fmin / n (Hill coefficient): G415H TynA + wild-type FeaR, pCX008, pCX015
Method: (§1) Flow cytometry was performed as previously described. […] Cytometry data was gated by forward and side scatter.

[3] = test system: G494S TynA and A81S FeaR; type: cell-based, E. coli MG1655; details: for Fmax / Fmin / n (Hill coefficient): G494S TynA + A81S FeaR, pCX008, pCX032
Method: as §1

[4] = test system: G494S TynA with A81T FeaR; type: cell-based, E. coli MG1655; details: for response: G494S*; for Fmax / Fmin / n (Hill coefficient): G494S TynA + A81T FeaR, pCX008, pCX014
Method: as §1

[5] = test system: G494S TynA with wild-type FeaR; type: cell-based, E. coli MG1655; details: for Fmax / Fmin / n (Hill coefficient): G494S TynA + wild-type FeaR, pCX008, pCX010
Method: as §1

[6] = test system: wild-type TynA with A81T FeaR; type: cell-based, E. coli MG1655; details: 24 h; for effect of the A81T FeaR mutation on the response of the sensor: wild-type TynA, 1 mM, FIG. 21
Method: as §1

[7] = test system: wild-type TynA with L108T FeaR; type: cell-based, E. coli MG1655; details: L108T FeaR; 24 h; FIG. 28B
Method: as §1

[8] = test system: wild-type TynA with M83Q FeaR; type: cell-based, E. coli MG1655; details: M83Q FeaR; 24 h; FIG. 28A
Method: as §1

[9] = test system: wild-type TynA with W110S FeaR; type: cell-based, E. coli MG1655; details: W110S FeaR; 24 h; FIG. 28C
Method: as §1

[10] = test system: wild-type TynA and A81L FeaR; assay: microbe, parasite or virus in culture; type: cell-based, E. coli MG1655; details: for response: A81L FeaR; for EC50: Escherichia coli, read-out: KA (half maximal constant), wild-type TynA + A81L FeaR
Method: as §1

[11] = test system: wild-type TynA with A81P FeaR; assay: microbe, parasite or virus in culture; type: cell-based, E. coli MG1655; details: for EC50: Escherichia coli, read-out: KA (half maximal constant), wild-type TynA + A81P FeaR
Method: as §1

[12] = test system: TynA-KP with FeaR-KA I109N; assay: GFP fluorescence from PtynA-MG with TynA-KP and FeaR-KA I109N; type: cell-based, Klebsiella aerogenes; details: for induction of fluorescence: I109N variant, 0.5 mM, 24 h, FIG. 32
Description: FIG. 32. […] Sensor system with PtynA-MG, TynA-KP and FeaR-KA was chosen as the wild type (WT) for further directed evolution. TynA-KP was employed to reduce the possible interference from DA during evolution processes. Values and error bars are the average and standard deviation of biological triplicate, respectively.
FIG. 33A-FIG. 33B. […] The expression of PtynA-MG was regulated by the TynA-KP with FeaR-KA I109N mutant. Points represent experimental data while lines represent the fitted curves. […] Values and error bars are the average and standard deviation of biological triplicate, respectively.

[13] = wild-type TynA + A81T FeaR, pCX008, pCX016, FIG. 22A
[14] = wild-type TynA + A81L FeaR, pCX008, pCX024, FIG. 5C, 24 h
[15] = wild-type TynA + A81L FeaR, pCX008, pCX024, FIG. 24, 5 h
[16] = wild-type TynA + A81P FeaR, pCX008, pCX025, FIG. 25A, 5 h
[17] = wild-type TynA + A81P FeaR, pCX008, pCX025, FIG. 25B, 24 h

NCCc1c[nH]c2ccccc12 [Tryptamine, tryptamine]
EC50 ([1]; 5 h): 45 µM | EC50 ([1]; 24 h): 85 µM | fold induction at 1250 µM [1]: ~280 | Fmax ([1]; FIG. 3D, 24 h induction): 268 | Fmin ([1]; FIG. 3D, 24 h induction): 1.3 | n (Hill coefficient) ([1]; FIG. 3D, 24 h induction): 4.3 | Fmax ([1]; FIG. 14, 5 h induction): 57 | Fmin ([1]; FIG. 14, 5 h induction): 5.9 | n (Hill coefficient) ([1]; FIG. 14, 5 h induction): 3.1 | response ([2]; 5 h, FIG. 17B): lack of response | response ([2]; 24 h, FIG. 4D): lack of response; also recorded: minimal response | response ([3]; G494S TynA and A81S FeaR, 5 h and 24 h, FIG. 23A-B): lack of response | response ([4]; 5 h, FIG. 17A): lack of response | response ([4]; 24 h, FIG. 4C): lack of response | response ([5]; G494S TynA, wild-type FeaR, 5 h and 24 h, FIG. 18A-B): lack of response | effect of the A81T FeaR mutation on the response of the sensor [6]: significantly reduced | response [7]: lack of response | response [8]: lack of response | response [9]: lack of response | response ([10]; 5 h, FIG. 24): lack of response | response ([10]; 24 h, FIG. 5C): lack of response | response ([11]; A81P FeaR, 5 h and 24 h, FIG. 25A-B): lack of response | response ([12]; FeaR-KA I109N, 5 h and 24 h, FIG. 33A-B): lack of response | induction of fluorescence [12]: induction of fluorescence

NCCc1ccccc1 [Phenylethylamine, phenylethylamine]
EC50 ([1]; 5 h): 42 µM | EC50 ([1]; 24 h): 87 µM | fold induction at 1250 µM [1]: > 1500 | Fmax ([1]; FIG. 3D, 24 h induction): 1430 | Fmin ([1]; FIG. 3D, 24 h induction): 0 | n (Hill coefficient) ([1]; FIG. 3D, 24 h induction): 3.9 | Fmax ([1]; FIG. 14, 5 h induction): 315 | Fmin ([1]; FIG. 14, 5 h induction): 10.4 | n (Hill coefficient) ([1]; FIG. 14, 5 h induction): 2 | Fmax ([2]; FIG. 4D, 24 h): 84 | Fmin ([2]; FIG. 4D, 24 h): 0 | n (Hill coefficient) ([2]; FIG. 4D, 24 h): 0.6 | Fmax ([2]; FIG. 17B, 5 h): 118 | Fmin ([2]; FIG. 17B, 5 h): 0 | n (Hill coefficient) ([2]; FIG. 17B, 5 h): 0.4 | Fmax ([3]; FIG. 23A, 5 h): 462 | Fmin ([3]; FIG. 23A, 5 h): 3.4 | n (Hill coefficient) ([3]; FIG. 23A, 5 h): 1.2 | Fmax ([3]; FIG. 25B, 22B [sic], 24 h): 475 | Fmin ([3]; FIG. 25B, 22B [sic], 24 h): 5.9 | n (Hill coefficient) ([3]; FIG. 25B, 22B [sic], 24 h): 1.5 | Fmax ([4]; FIG. 4C, 22B, 24 h): 790 | Fmin ([4]; FIG. 4C, 22B, 24 h): 5.4 | n (Hill coefficient) ([4]; FIG. 4C, 22B, 24 h): 1.4 | Fmax ([4]; FIG. 17A, 5 h): 9280 | Fmin ([4]; FIG. 17A, 5 h): 1.1 | n (Hill coefficient) ([4]; FIG. 17A, 5 h): 1.2 | fold induction ([4]; G494S* double mutant sensor): 140 fold | Fmax ([5]; FIG. 18A, 5 h): 18 | Fmin ([5]; FIG. 18A, 5 h): 0.8 | n (Hill coefficient) ([5]; FIG. 18A, 5 h): 36 | Fmax ([5]; FIG. 18B, 22B, 24 h): 4012 | Fmin ([5]; FIG. 18B, 22B, 24 h): 3.4 | n (Hill coefficient) ([5]; FIG. 18B, 22B, 24 h): 1.3 | fold induction ([5]; G494S single mutant sensor): 50 fold | Fmax [6, 13]: 1010 | Fmin [6, 13]: 18 | n (Hill coefficient) [6, 13]: 4.3 | effect of the A81T FeaR mutation on the response of the sensor [6]: insignificant impact | fold induction ([10]; A81L sensor, FIG. 5C): 580 fold | EC50 ([10]; 5 h, pCX008, pCX024, FIG. 24, 5 h): 74 µM | EC50 ([10]; 24 h, pCX008, pCX024, FIG. 5C, 24 h): 140 µM | Fmax [10, 14]: 585 | Fmin [10, 14]: 4.8 | KA (half maximal constant) [10, 14]: 0.137 mM | n (Hill coefficient) [10, 14]: 2.7 | Fmax [10, 15]: 289 | Fmin [10, 15]: 5.1 | n (Hill coefficient) [10, 15]: 2.6 | EC50 ([11]; 5 h, pCX008, pCX025, FIG. 25A, 5 h): 14 µM | EC50 ([11]; 24 h, pCX008, pCX025, FIG. 25B, 24 h): 50 µM | Fmax [11, 16]: 14 | Fmin [11, 16]: 0.4 | n (Hill coefficient) [11, 16]: 8.4 | Fmax [11, 17]: 112 | Fmin [11, 17]: 1.1 | KA (half maximal constant) [11, 17]: 0.052 mM | n (Hill coefficient) [11, 17]: 20.3 | induction of fluorescence [12]: not
